Values after ≈ are worked out from the molar mass of the structure shown. Structures can show the parent of a compound that is named as a salt.
Assay: physchem
Settings: jp test solution 2
Protocol: Test method: Saturation dissolution method
Test conditions: Constanttemperature bath (25° C.)
Ultracentrifugation: 40000 rpm × 1 hr; the supernatant analyzed by

Work on `COC(=O)C1=C(C)NC(C)=C(P2(=O)OCCCO2)C1c1ccccc1[N+](=O)[O-]` (centres unmarked) [Compound A, methyl 2,6-dimethyl-4-(2-nitrophenyl)-5-(2-oxo-1,3,2-dioxaphosphorinan-2-yl)-1,4-dihydropyridine-3-carboxylate] yielded a solubility at 24 h of 36.5 µg/mL (≈ 89.4 µM).
Compound `COC(=O)C1=C(C)NC(C)=C(C(=O)OCCN(C)Cc2ccccc2)C1c1cccc([N+](=O)[O-])c1` (centres unmarked) [nicardipine hydrochloride] has a solubility at 24 h of 8.5 µg/mL.
